Data reported in patent US20240067651A1 (Biohaven Therapeutics Ltd., priority 2019, published 2024).

How the values were obtained:
[1] = Caco-2 Permeability Assay; format: in vitro ADME, human; details: human
Outline: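 Caco-2 monolayers cultured 21 days (TEER >600 […]); test article at 10 μM in HBSS/HEPES pH 7.4 transport medium, dosed apical or basolateral, ±Pgp inhibitor. Incubated 90 min at 37 °C; both compartments quantified by LC-MS/MS. Papp (A→B, B→A), efflux ratio and % recovery calculated.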

[2] = Stability in Simulated Gastric Fluid (SGF); format: in vitro ADME; set-up: key: % parent compound remaining relative to 0-minute sample
Outline: (§1)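 Compound at 2 μg/mL final was incubated at 37° C with orbital shaking in SGF containing pepsin (pH 1.2) or SIF containing pancreatin (pH 6.8), sampled from 0 to 60 minutes. Parent remaining was measured by LC-MS/MS relative to the 0-minute sample; half-life came from ln(% remaining) versus time when enough points existed.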

[3] = Stability in Simulated Intestinal Fluid (SIF); format: in vitro ADME; set-up: key: % parent compound remaining relative to 0-minute sample
Outline: as §1

[4] = Plasma Stability; format: in vitro ADME, human
Outline: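 Compounds incubated at 1 μM in fresh human plasma for 1 hour at 37° C, then protein-precipitated with acetonitrile/formic acid containing internal standard. Remaining parent measured by LC-MS/MS in triplicate, expressed as percent of control remaining.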

[5] = Caco-2, pH 7.4, Caco-2 monolayer
[6] = simulated gastric fluid, remaining at 1 h
[7] = simulated intestinal fluid, remaining at 1 h
[8] = % remaining at 1 h in simulated gastric fluid
[9] = % remaining at 1 h in simulated intestinal fluid
[10] = % remaining at 1 h in human plasma
[11] = Caco-2, pH 7.4, Caco-2 monolayer, the 15th table
[12] = % remaining at 1 h in simulated gastric fluid, the 15th table
[13] = % remaining at 1 h in simulated intestinal fluid, the 15th table
[14] = % remaining at 1 h in human plasma, the 15th table
[15] = Caco-2, pH 7.4, donor 10 μM, 90 minutes, 37° C., direction not given
[16] = % remaining at 1 h, SGF with pepsin pH 1.2, 2 μg/mL, 37° C.
[17] = % remaining at 1 h, SIF with pancreatin pH 6.8, 2 μg/mL, 37° C.
[18] = % remaining at 1 h, human plasma, 1 μM, 37° C.
[19] = bare number, unit or time not given

CC(C)C[C@@H](N)C(=O)OCSc1nc(=O)c2c(ccn2COC(=O)[C@H](N)CC(C)C)n1CCOC(C)C.O=C(O)C(F)(F)F.O=C(O)C(F)(F)F [Example 325, bis(trifluoroacetic acid) {[5-({[(2R)-2-amino-4-methylpentanoyl]oxy}methyl)-4-oxo-1-[2-(propan-2-yloxy)ethyl]-1H,4H,5H-pyrrolo[3,2-d]pyrimidin-2-yl]sulfanyl}methyl (2R)-2-amino-4-methylpentanoate]
Papp at 90 min, 10 µM ([1]; Caco-2, pH 7.4): 0.908 ×10⁻⁶ cm/s | SGF ([2]; % remaining @ 1 h): 99%@ 1 h | SIF ([3]; % remaining @ 1 h): 3%@ 1 h | human Plasma stability ([4]; % remaining @ 1 h): 1%@ 1 h

CC(C)C[C@@H](N)C(=O)OCCCCC(=O)OCn1ccc2c1c(=O)[nH]c(=S)n2CCOC(C)C.O=C(O)C(F)(F)F [Example 350, trifluoroacetic acid 5-oxo-5-({4-oxo-1-[2-(propan-2-yloxy)ethyl]-2-sulfanylidene-1H, 2H,3H,4H,5H-pyrrolo[3,2-d]pyrimidin-5-yl}methoxy)pentyl (2R)-2-amino-4-methylpentanoate]
Papp at 90 min, 10 µM [1, 5]: 0.0782 ×10⁻⁶ cm/s | SGF [2, 6]: 29% remaining | SIF [3, 7]: 52% remaining | human Plasma stability ([4]; human plasma, remaining at 1 h): 44% remaining

CNCC(=O)NCCCCC(=O)OCn1ccc2c1c(=O)[nH]c(=S)n2CCOC(C)C.O=C(O)C(F)(F)F [Example 55]
Papp at 90 min, 10 µM [1, 5]: 0.244 ×10⁻⁶ cm/s | SGF [2, 8]: 100% | SIF [3, 9]: 98% remaining | human Plasma stability [4, 10]: 1% remaining

CC(C)OCCn1c(=S)[nH]c(=O)c2c1ccn2COC(=O)CCNC(=O)[C@H](Cc1ccc(O)cc1)NC(=O)OC(C)(C)C.O=C(O)C(F)(F)F [Example 46]
Papp at 90 min, 10 µM [1, 5]: 1.12 ×10⁻⁶ cm/s | SGF [2, 8]: 98% remaining | SIF [3, 9]: 100% | human Plasma stability [4, 10]: 63% remaining

CCCCNC(=O)OCSc1nc(=O)c2c(ccn2C(=O)NCCCC)n1CCOC(C)C [Example 194]
Papp at 90 min, 10 µM [1, 11]: 42.9 ×10⁻⁶ cm/s | SGF [2, 12]: 99% remaining | SIF [3, 13]: 59% remaining | human Plasma stability [4, 14]: 97% remaining

CC(C)OCCn1c(=S)[nH]c(=O)c2c1ccn2COC(=O)CCCCNC(=O)OC(C)(C)C [Example 7, {4-oxo-1-[2-(propan-2-yloxy)ethyl]-2-sulfanylidene-1H,2H,3H,4H,5H-pyrrolo[3,2-d]pyrimidin-5-yl}methyl 5-{[(tert-butoxy)carbonyl]amino}pentanoate]
Papp at 90 min, 10 µM [1, 15]: 14.7 ×10⁻⁶ cm/s | SGF [2, 16]: 66% | SIF [3, 17]: 40% | human Plasma stability [4, 18]: 4%

CC(C)OCCn1c(SCOC(=O)[C@H](Cc2ccccc2)NC(=O)OC(C)(C)C)nc(=O)c2c1ccn2COC(=O)[C@H](Cc1ccccc1)NC(=O)OC(C)(C)C [Example 303, {[5-({[(2S)-2-{[(tert-butoxy)carbonyl]amino}-3-phenylpropanoyl]oxy}methyl)-4-oxo-1-[2-(propan-2-yloxy)ethyl]-1H,4H,5H-pyrrolo[3,2-d]pyrimidin-2-yl]sulfanyl}methyl (2S)-2-{[(tert-butoxy)carbonyl]amino}-3-phenylpropanoate]
Papp at 90 min, 10 µM ([1]; Caco-2, pH 7.4): 5.56 ×10⁻⁶ cm/s | SGF ([2]; % remaining @ 1 h): 46% @ 1 h | SIF ([3]; % remaining @ 1 h): 1% @ 1 h | human Plasma stability ([4]; % remaining @ 1 h): 28% @ 1 h

CC(C)OCCn1c(=S)[nH]c(=O)c2c1ccn2COC(=O)CCCCNC(=O)[C@@H](N)Cc1ccc(O)cc1.O=C(O)C(F)(F)F [Example 49]
Papp at 90 min, 10 µM [1, 5]: 0.154 ×10⁻⁶ cm/s | SGF [2, 8]: 99% remaining | SIF [3, 9]: 92% remaining | human Plasma stability [4, 10]: 1% remaining

CC(C)OCCn1c(=S)n(COC(=O)[C@@H](N)C(C)C)c(=O)c2c1ccn2COC(=O)[C@@H](N)C(C)C.O=C(O)C(F)(F)F.O=C(O)C(F)(F)F [Example 297, bis(trifluoroacetic acid) [3-({[(2S)-2-amino-3-methylbutanoyl]oxy}methyl)-4-oxo-1-[2-(propan-2-yloxy)ethyl]-2-sulfanylidene-1H,2H,3H,4H,5H-pyrrolo[3,2-d]pyrimidin-5-yl]methyl (2S)-2-amino-3-methylbutanoate]
Papp at 90 min, 10 µM ([1]; Caco-2, pH 7.4): 0.462 ×10⁻⁶ cm/s | SGF ([2]; % remaining @ 1 h): 100% @ 1 h | SIF ([3]; % remaining @ 1 h): 6% @ 1 h | human Plasma stability ([4]; % remaining @ 1 h): 6% @ 1 h

CC[C@H](C)[C@H](N)C(=O)NCCC(=O)OCn1ccc2c1c(=O)[nH]c(=S)n2CCOC(C)C.O=C(O)C(F)(F)F [Example 38]
Papp at 90 min, 10 µM [1, 5]: 0.31 ×10⁻⁶ cm/s | SGF [2, 8]: 92% remaining | SIF [3, 9]: 84% remaining | human Plasma stability [4, 10]: 65% remaining

CC(C)CNC(=O)OCSc1nc(=O)c2c(ccn2C(=O)NCC(C)C)n1CCOC(C)C [Example 187]
Papp at 90 min, 10 µM [1, 11]: 33.1 ×10⁻⁶ cm/s | SGF [2, 12]: 97% @ 1 h | SIF [3, 13]: 97% @ 1 h | human Plasma stability [4, 14]: 96% @ 1 h

CC(C)OCCn1c(=S)[nH]c(=O)c2c1ccn2COC(=O)[C@H](N)Cc1ccccc1.O=C(O)C(F)(F)F [Example 311, trifluoroacetic acid {4-oxo-1-[2-(propan-2-yloxy)ethyl]-2-sulfanylidene-1H,2H,3H,4H,5H-pyrrolo[3,2-d]pyrimidin-5-yl}methyl (2R)-2-amino-3-phenylpropanoate]
Papp at 90 min, 10 µM ([1]; Caco-2, pH 7.4): 5.44 ×10⁻⁶ cm/s | SGF ([2]; % remaining @ 1 h): 98% @ 1 h | SIF ([3]; % remaining @ 1 h): 7% @ 1 h | human Plasma stability ([4]; % remaining @ 1 h): 4% @ 1 h

CC(C)OCCn1c(=S)[nH]c(=O)c2c1ccn2COC(=O)CCCCNC(=O)CN(C)C(=O)CN.O=C(O)C(F)(F)F [Example 59]
Papp at 90 min, 10 µM [1, 5]: < 0.254 ×10⁻⁶ cm/s | SGF [2, 8]: 95% remaining | SIF [3, 9]: 98% remaining | human Plasma stability [4, 10]: 11% remaining

CC(C)OCCn1c(=S)[nH]c(=O)c2c1ccn2COC(=O)CCNC(=O)[C@H](Cc1c[nH]c2ccccc12)NC(=O)OC(C)(C)C.O=C(O)C(F)(F)F [Example 48]
Papp at 90 min, 10 µM [1, 5]: 5.93 ×10⁻⁶ cm/s | SGF [2, 8]: 90% remaining | SIF [3, 9]: 89% remaining | human Plasma stability [4, 10]: 74% remaining

CC[C@H](C)[C@H](NC(=O)OC(C)(C)C)C(=O)NCCCCC(=O)OCn1ccc2c1c(=O)[nH]c(=S)n2CCOC(C)C [Example 33]
Papp at 90 min, 10 µM [1, 5]: 9.47 ×10⁻⁶ cm/s | SGF [2, 8]: 90% remaining | SIF [3, 9]: 78% remaining | human Plasma stability [4, 10]: 53% remaining

CC[C@H](C)[C@H](NC(=O)OC(C)(C)C)C(=O)NCCC(=O)OCn1ccc2c1c(=O)[nH]c(=S)n2CCOC(C)C [Example 34]
Papp at 90 min, 10 µM [1, 5]: 10.7 ×10⁻⁶ cm/s | SGF [2, 8]: 85% remaining | SIF [3, 9]: 90% remaining | human Plasma stability [4, 10]: 93% remaining

CC(C)OCCn1c(SCOCC[Si](C)(C)C)nc(=O)c2c1ccn2COCC[Si](C)(C)C [Example 73, 1-[2-(propan-2-yloxy)ethyl]-5-{[2-(trimethylsilyl)ethoxy]-methyl}-2-({[2-(trimethylsilyl)ethoxy]methyl}sulfanyl)-1H,4H,5H-pyrrolo[3,2-d]pyrimidin-4-one]
Papp at 90 min, 10 µM [1, 15]: < 0.717 ×10⁻⁶ cm/s | SGF [2, 16]: 35% | SIF [3, 17]: 55% | human Plasma stability [4, 18]: 99%

CC(C)OCCn1c(SCOC(=O)N(C)c2ccccc2F)nc(=O)c2[nH]ccc21 [Example 239]
Papp at 90 min, 10 µM [1, 5]: 11.7 ×10⁻⁶ cm/s | SGF ([2]; simulated gastric fluid, at 1 h): 99% remaining | SIF ([3]; simulated intestinal fluid, at 1 h): 96% remaining | human Plasma stability ([4]; human plasma, at 1 h): 85% remaining

CC(C)OCCn1c(=S)[nH]c(=O)c2c1ccn2COC(=O)CCCCNC(=O)CN(C)C(=O)OC(C)(C)C.O=C(O)C(F)(F)F [Example 53]
Papp at 90 min, 10 µM [1, 5]: 3.43 ×10⁻⁶ cm/s | SGF [2, 8]: 92% remaining | SIF [3, 9]: 98% remaining | human Plasma stability [4, 10]: 0% remaining

CC(C)OCCn1c(SCOC(=O)CCCOC(=O)[C@H](N)Cc2ccccc2)nc(=O)c2c1ccn2COC(=O)CCCOC(=O)[C@H](N)Cc1ccccc1.O=C(O)C(F)(F)F.O=C(O)C(F)(F)F [Example 364, bis(trifluoroacetic acid) [(5-{[(4-{[(2R)-2-amino-3-phenylpropanoyl]oxy}butanoyl)oxy]methyl}-4-oxo-1-[2-(propan-2-yloxy)ethyl]-1H,4H,5H-pyrrolo[3,2-d]pyrimidin-2-yl)sulfanyl]methyl 4-{[(2R)-2-amino-3-phenylpropanoyl]oxy}butanoate]
Papp at 90 min, 10 µM [1, 5]: 0.277 ×10⁻⁶ cm/s | SGF [2, 6]: 47% remaining | SIF [3, 7]: 1% remaining | human Plasma stability ([4]; human plasma, remaining at 1 h): 31% remaining

CC(C)OCCn1c(=S)[nH]c(=O)c2c1ccn2COC(=O)CCCCOC(=O)[C@@H](N)C(C)C.O=C(O)C(F)(F)F [Example 335, trifluoroacetic acid {4-oxo-1-[2-(propan-2-yloxy)ethyl]-2-sulfanylidene-1H,2H,3H,4H,5H-pyrrolo[3,2-d]pyrimidin-5-yl}methyl 5-{[(2S)-2-amino-3-methylbutanoyl]oxy}pentanoate]
Papp at 90 min, 10 µM ([1]; Caco-2, pH 7.4): 3.32 ×10⁻⁶ cm/s | SGF [2, 19]: 99 | SIF [3, 19]: 9 | human Plasma stability ([4]; % remaining @ 1 h): 3% remaining
